Experimental data: EP0430025A2, “Xanthine compound, method for preparing thereof, and a pharmaceutical composition comprising the same” (HOKURIKU PHARMACEUTICAL CO., LTD., priority 1989, dated 1991)

Tests used:
[1] = test system: isolated guinea-pig atria; assay: Chronotropic activity in the isolated guinea-pig atrium (spontaneous beating rate of right atrium); details: 15% increase of spontaneous beating rate of right atrium; cumulative addition; 30°C
Protocol: Male Hartley guinea-pig weighing about 500 g was sacrificed and the right atrium was removed. The atrium was mounted vertically in an organ bath containing Krebs-Henseleit solution. The bath medium was maintained at 30°C and was equilibrated with a gas mixture consisting of 95% 0₂ and 5% CO₂. A restintion of 0.5 g was applied. The spontaneous beating rates for the right atrium were recorded by using a heart rate counter. The test compounds were added cumulatively to the bath. ED₁₅ values representing the amount of the compound which produced 15% increases of the spontaneous beating rates for the right atria were caluculated on the basis of the results obtained.

[2] = test system: isolated dog mesenteric artery; assay: Relaxation activity in the isolated dog mesenteric artery (pre-contracted with prostaglandin F2α); details: for EC50: Canis lupus familiaris, 50% of maximal relaxation (10⁻⁴M papaverine), pre-contracted with prostaglandin F₂α 3 × 10⁻⁶ M, 37°C, read-out: relaxation activity in the isolated dog mesenteric artery ED₅₀; for relative effectiveness of the compounds to reference B: dog mesenteric artery ED₅₀ relative to reference compound B (propentofylline) = 1
Protocol: The mesenteric arteries were isolated from mongrel dogs of either sex weighing about 10kg. Each helical strip (2 mm in width and 20 mm in length) was mounted vertically in an organ bath containing Krebs-Henseleit solution. The bath medium was maintained at 37 °C and was equilibrated with a gas mixture consisting of 95% O₂ and 5% […]. A resting tension of 1.0 g was applied and the response was recorded isometrically. The preparations were pre-contracted with prostaglandin F₂ α (3 × 10⁻⁶ M) and the smooth muscle relaxations induced by the test compounds were recorded. The test compounds were added cumulatively to the bath. ED₅₀ values representing the amount of the compound which produces 50% relaxations of the maximal relaxations (10 ⁻⁴M papaverine) were caluculated on the basis of the results obtained above.

[3] = test system: complete cerebral ischemia in mice; assay: Protective effect on complete cerebral ischemia in mice (gasping duration after decapitation); type: in vivo; details: 50 mg/kg, p.o., 30 minutes before decapitation; male ddY mice
Protocol: Male ddY mice weighing about 25 g were used. Complete cerebral ischemia was produced by the amputation of the cervix between the medulla oblongata and the spinal cord. The time between decapitation and the last gasp was recorded as gasping duration. Test compounds were suspended with 0.5% carboxymethylcellulose except propentofylline which was dissolved in distilled H₂O, and then administered orally 30 minutes before the decapitation. The gasping duration was evaluated at the dose of 50 mg/kg.

[4] = test system: isolated guinea-pig trachea; assay: Relaxation activity in the isolated guinea-pig trachea (resting tonus, organ bath); details: for EC50: Cavia porcellus, 50% of maximal relaxation (10⁻⁶M isoproterenol), resting tonus, cumulative addition, 37°C, read-out: relaxation activity in the isolated guinea-pig trachea ED₅₀; for relative effectiveness of the compounds to reference A: guinea-pig trachea ED₅₀ relative to reference compound A (theophylline) = 1
Protocol: Male Hartley guinea-pigs weighing about 500 g were sacrificed and the trachea were removed. The tracheal chain strips were made and the preparations were mounted vertically in an organ bath containing Locke-Ringer solution. The bath medium was maintained at 37°C and was equilibrated with a gas mixture consisting of 95% O₂ and 5% CO₂. Relaxation activities of the test compounds on the resting tonus of the preparations were recorded isotonically. The test compounds were added cumulatively to the bath. ED₅₀ values representing the amount of the compound tested which produces 50% relaxations of the maximal relaxations (10⁻⁶M isoproterenol) were calculated on the basis of the results obtained above.

Row | SMILES | chronotropic activity in the isolated guinea-pig atria ED₁₅ [1] [× 10⁻⁵ M] | EC50 [2] [µM] | EC50 [4] [µM] | relative effectiveness of the compounds to reference B [2] | protective effect on complete cerebral iscehemia in mice gasping duration [3] [%] | relative effectiveness of the compounds to reference A [4]
1 | CC(=O)CCCCn1c(=O)c2c(ncn2C)n(C2CC2)c1=O [Example 6, 3-Cyclopropyl-3,7-dihydro-7-methyl-1-(5-oxohexyl)-1H-purine-2,6-dione] | > 10 | 15 |  | 2.5 |  | 
2 | CCCCn1cnc2c1c(=O)n(CCCCC(C)=O)c(=O)n2C1CC1 [Example 15, 7-n-Butyl-3-cyclopropyl-3,7-dihydro-1-(5-oxohexyl)-1H-purine-2,6-dione] | > 10 | 36 | 18 | 1.1 | 112.3 | 1.6
3 | CCCCCn1cnc2c1c(=O)n(CCCCC(C)=O)c(=O)n2C1CC1 [Example 16, 3-Cyclopropyl-3,7-dihydro-1-(5-oxohexyl)-7-n-pentyl-1H-purine-2,6-dione] | > 10 |  | 23 |  | 107.8 | 1.2
4 | CCCCCCn1cnc2c1c(=O)n(CCCCC(C)=O)c(=O)n2C1CC1 [Example 17, 3-Cyclopropyl-7-n-hexyl-3,7-dihydro-1-(5-oxohexyl)-1H-purine-2,6-dione] | > 10 | 18 | 11 | 2.1 | 106.8 | 2.5
5 | CCCCn1c(=O)c2c(ncn2CC(C)=O)n(C2CC2)c1=O [Example 30, 1-n-Butyl-3-cyclopropyl-3,7-dihydro-7-(2-oxopropyl)-1H-purine-2,6-dione] | > 10 | 0.56 | 1.5 | 68 |  | 19
6 | CCCCCCn1c(=O)c2c(ncn2CC(C)=O)n(C2CC2)c1=O [Example 34, 3-Cyclopropyl-1-n-hexyl-3,7-dihydro-7-(2-oxopropyl)-1H-purine-2,6-dione] | > 10 | 0.64 | 6 | 59 |  | 4.7
7 | Cn1cnc2c1c(=O)n(CCCCC1(C)OCCO1)c(=O)n2C1CC1 [Example 38, 3-Cyclopropyl-3,7-dihydro7-methyl-1-[4-(2-methyl-1,3-dioxolan-2-yl)butyl]-1H-purine-2,6-dione] | > 10 |  |  |  |  | 
8 | CCCCn1c(=O)c2c(ncn2CC2(C)OCCO2)n(C2CC2)c1=O [Example 40, 1-n-Butyl-3-cyclopropyl-3,7-dihydro-7-[(2-methyl-1,3-dioxolan-2-yl)methyl]-1H-purine-2,6-dione] | > 10 |  | 16 |  |  | 1.8

Continued, in another order:

Row | chronotropic activity in the isolated guinea-pig atria ED₁₅ [1] [× 10⁻⁵ M] | EC50 [2] [µM] | EC50 [4] [µM] | SMILES | relative effectiveness of the compounds to reference B [2] | protective effect on complete cerebral iscehemia in mice gasping duration [3] [%] | relative effectiveness of the compounds to reference A [4]
9 | > 10 |  |  | CC(=O)Cn1c(=O)c2c(ncn2C)n(C2CC2)c1=O [Example 3, 3-Cyclopropyl-3,7-dihydro-7-methyl-1-(2-oxopropyl)-1H-purine-2,6-dione] |  |  | 
10 | > 10 |  |  | CC(=O)CCCCn1cnc2c1c(=O)n(C)c(=O)n2C1CC1 [Example 25, 3-Cyclopropyl-3,7-dihydro-1-methyl-7-(5-oxohexyl)-1H-purine-2,6-dione] |  |  | 
11 |  | 10 | 14 | CCn1c(=O)c2c(ncn2CC(C)=O)n(C2CC2)c1=O [Example 26, 3-Cyclopropyl-1-ethyl-3,7-dihydro-7-(2-oxopropyl)-1H-purine-2,6-dione] | 3.8 |  | 2.0
12 | 7.6 |  | 28 | Cn1c(=O)c2[nH]cnc2n(C)c1=O [Reference compound A, theophylline, reference compound] |  |  | 1
13 | 5.1 | 38 |  | CCCn1cnc2c1c(=O)n(CCCCC(C)=O)c(=O)n2C [Reference compound B, propentofylline, reference compound] | 1 | 106.4 | 
